In BindingDB's records for doi:10.1002/cmdc.201100077 (Zydus Research Centre, 2011) one finds IC50 data, which are given here for 15 compounds.

Test [1] concerns the target T1, Tyrosine-protein phosphatase non-receptor type 1 (Homo sapiens, UniProt P18031).
T1 sequence (P18031 whole entry): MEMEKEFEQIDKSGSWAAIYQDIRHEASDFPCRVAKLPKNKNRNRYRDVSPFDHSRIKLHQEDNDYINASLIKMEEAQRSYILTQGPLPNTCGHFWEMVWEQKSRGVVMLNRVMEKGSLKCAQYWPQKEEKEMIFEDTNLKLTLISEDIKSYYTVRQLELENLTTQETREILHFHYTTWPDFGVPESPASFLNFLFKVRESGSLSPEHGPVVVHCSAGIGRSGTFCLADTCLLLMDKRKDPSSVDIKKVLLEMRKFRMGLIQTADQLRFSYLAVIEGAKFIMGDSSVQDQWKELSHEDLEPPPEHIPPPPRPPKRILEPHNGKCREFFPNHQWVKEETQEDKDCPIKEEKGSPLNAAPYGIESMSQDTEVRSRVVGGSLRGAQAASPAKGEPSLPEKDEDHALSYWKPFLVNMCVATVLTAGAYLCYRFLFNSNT
The experiment in a line: Enzyme Assays. The procedure: (§1) The in vitro enzyme inhibitory activity was evaluated by using the pNPP assay. Para-nitrophenylphosphate (pNPP) and test compounds were added to assay buffer, and reactions were initiated by the addition of PTP1B or TCPTP (10-100 nM).

The target of test [2] is T2, Tyrosine-protein phosphatase non-receptor type 2 (Homo sapiens, UniProt P17706).
T2 sequence (P17706 whole entry): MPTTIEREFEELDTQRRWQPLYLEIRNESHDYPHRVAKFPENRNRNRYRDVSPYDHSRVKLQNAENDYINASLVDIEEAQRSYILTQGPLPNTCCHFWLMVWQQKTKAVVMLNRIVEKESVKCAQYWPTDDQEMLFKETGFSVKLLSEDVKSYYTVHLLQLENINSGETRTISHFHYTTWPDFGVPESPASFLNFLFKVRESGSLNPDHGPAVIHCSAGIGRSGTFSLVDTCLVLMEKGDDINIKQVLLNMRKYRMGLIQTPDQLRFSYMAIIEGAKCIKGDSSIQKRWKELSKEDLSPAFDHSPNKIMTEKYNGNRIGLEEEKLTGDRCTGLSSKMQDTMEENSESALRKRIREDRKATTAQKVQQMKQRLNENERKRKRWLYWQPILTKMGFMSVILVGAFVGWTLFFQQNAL
As to the kind of experiment: Enzyme Assays. The procedure: as §1

As usually defined, the IC50 is the midpoint of a concentration-inhibition curve. A lower IC50 goes with greater potency. As for `O=C(c1ccccc1)C(Cc1ccc2cc(Br)c(C(F)(F)P(=O)(O)O)cc2c1)(Cc1ccc2cc(Br)c(C(F)(F)P(=O)(O)O)cc2c1)n1nnc2ccccc21`, the figures for the IC50 in test [1] and in test [2] were 5 nM and 580 nM, respectively.

`O=C(c1ccccc1)C(Cc1ccc(C(F)(F)P(=O)(O)O)c(Br)c1)(Cc1ccc2cc(Br)c(C(F)(F)P(=O)(O)O)cc2n1)n1nnc2ccccc21` (stereo not drawn) [({2-[2-(1H-1,2,3-benzotriazol-1-yl)-2-({3-bromo-4-[difluoro(phosphono)methyl]phenyl}methyl)-3-oxo-3-phenylpropyl]-6-bromoquinolin-7-yl}difluoromethyl)phosphonic acid (10l)] yielded an IC50 in test [1] of 21 nM.

Take `O=C(c1ccccc1)C(Cc1ccc2cc(Br)c(C(F)(F)P(=O)(O)O)cc2n1)(Cc1ccc2cc(Br)c(C(F)(F)P(=O)(O)O)cc2n1)n1nnc2ccccc21` [({2-[2-(1H-1,2,3-benzotriazol-1-yl)-2-({6-bromo-7-[difluoro(phosphono)methyl]quinolin-2-yl}methyl)-3-oxo-3-phenylpropyl]-6-bromoquinolin-7-yl}difluoromethyl)phosphonic acid (10n)]: the results for the IC50 in test [1] and in test [2] were 5 nM and 101 nM, respectively.

In turn, `N[S+]([O-])C(F)(F)c1ccc(CC(Cc2ccc3cc(Br)c(C(F)(F)P(=O)(O)O)cc3n2)(C(=O)c2ccccc2)n2nnc3ccccc32)cc1Br` (stereo not drawn) [({2-[2-({4-[(aminosulfinyl)difluoromethyl]-3-bromophenyl}methyl)-2-(1H-1,2,3-benzotriazol-1-yl)-3-oxo-3-phenylpropyl]-6-bromoquinolin-7-yl}difluoromethyl)phosphonic acid (10m)] yielded a concentration for half-maximal inhibition (IC50) in test [1] of 22 nM.

For `N[S+]([O-])C(F)(F)c1cc2nc(CC(Cc3ccc4cc(Br)c(C(F)(F)P(=O)(O)O)cc4n3)(C(=O)c3ccccc3)n3nnc4ccccc43)ccc2cc1Br` (stereo not drawn) [({2-[2-({7-[(aminosulfinyl)difluoromethyl]-6-bromoquinolin-2-yl}methyl)-2-(1H-1,2,3-benzotriazol-1-yl)-3-oxo-3-phenylpropyl]-6-bromoquinolin-7-yl}difluoromethyl)phosphonic acid (10o)], the IC50 amounted to 4 nM in test [1] and 82 nM in test [2].

With `O=C(c1ccccc1)C(Cc1ccc(C(F)(F)P(=O)(O)O)c(Br)c1)(Cc1ccc2cc(Br)c(C(F)(F)P(=O)(O)O)cc2c1)n1nnc2ccccc21` (stereo not drawn) [({7-[2-(1H-1,2,3-benzotriazol-1-yl)-2-({3-bromo-4-[difluoro(phosphono)methyl]phenyl}methyl)-3-oxo-3-phenylpropyl]-3-bromonaphthalen-2-yl}difluoromethyl)phosphonic acid (10b)], the values for the half-inhibitory concentration (IC50) in test [1] and in test [2] were 20 nM and 201 nM, respectively.

Regarding `O=C(c1ccccc1)C(Cc1ccc(C(F)(F)P(=O)(O)O)cc1)(Cc1ccc2cc(Br)c(C(F)(F)P(=O)(O)O)cc2c1)n1nnc2ccccc21` (stereo not drawn) [({7-[2-(1H-1,2,3-benzotriazol-1-yl)-2-({4-[difluoro(phosphono)methyl]phenyl}methyl)-3-oxo-3-phenylpropyl]-3-bromonaphthalen-2-yl}difluoromethyl)phosphonic acid (10a)], the IC50 in test [1] came to 46 nM.

In test [1], `O=C(c1ccccc1)C(Cc1ccc(Br)c(C(F)(F)P(=O)(O)O)c1)(Cc1ccc2cc(Br)c(C(F)(F)P(=O)(O)O)cc2c1)n1nnc2ccccc21` (stereo not drawn) [({7-[2-(1H-1,2,3-benzotriazol-1-yl)-2-({4-bromo-3-[difluoro(phosphono)methyl]phenyl}methyl)-3-oxo-3-phenylpropyl]-3-bromonaphthalen-2-yl}difluoromethyl)phosphonic acid (10c)] displayed an IC50 of 404 nM.

In the case of `O=C(c1ccccc1)C(Cc1ccc2cc(Br)c(C(F)(F)P(=O)(O)O)cc2c1)(Cc1ccc2cc(Br)c(C(F)(F)P(=O)(O)O)cc2n1)n1nnc2ccccc21` (stereo not drawn) [({7-[2-(1H-1,2,3-benzotriazol-1-yl)-2-({6-bromo-7-[difluoro(phosphono)methyl]quinolin-2-yl}methyl)-3-oxo-3-phenylpropyl]-3-bromonaphthalen-2-yl}difluoromethyl)phosphonic acid (10i)], the results for the IC50 in test [1] and in test [2] were 3 nM and 90 nM, respectively.

Compound `O=C1CC(c2ccc(CC(Cc3ccc4cc(Br)c(C(F)(F)P(=O)(O)O)cc4c3)(C(=O)c3ccccc3)n3nnc4ccccc43)cc2F)S(=O)(=O)N1` (stereo not drawn) [({7-[2-(1H-1,2,3-benzotriazol-1-yl)-2-{[3-fluoro-4-(1,1,3-trioxo-1λ⁶,2-thiazolidin-5-yl)phenyl]methyl}-3-oxo-3-phenylpropyl]-3-bromonaphthalen-2-yl}difluoromethyl)phosphonic acid (10g)] came in with an IC50 in test [1] of 919 nM.

Take `Cc1cc(CC(Cc2ccc3cc(Br)c(C(F)(F)P(=O)(O)O)cc3c2)(C(=O)c2ccccc2)n2nnc3ccccc32)ccc1C1CC(=O)NS1(=O)=O` (stereo not drawn) [({7-[2-(1H-1,2,3-benzotriazol-1-yl)-2-{[3-methyl-4-(1,1,3-trioxo-1λ⁶,2-thiazolidin-5-yl)phenyl]methyl}-3-oxo-3-phenylpropyl]-3-bromonaphthalen-2-yl}difluoromethyl)phosphonic acid (10f)]: in test [1], 924 nM corresponded to half-maximal inhibition (IC50).

`O=C1CC(c2ccc(CC(Cc3ccc4cc(Br)c(C(F)(F)P(=O)(O)O)cc4c3)(C(=O)c3ccccc3)n3nnc4ccccc43)cc2)S(=O)(=O)N1` (stereo not drawn) [({7-[2-(1H-1,2,3-benzotriazol-1-yl)-3-oxo-3-phenyl-2-{[4-(1,1,3-trioxo-1λ⁶,2-thiazolidin-5-yl)phenyl]methyl}propyl]-3-bromonaphthalen-2-yl}difluoromethyl)phosphonic acid (10e)] registered a 50% inhibitory concentration (IC50) in test [1] of 930 nM.

For `N[S+]([O-])C(F)(F)c1ccc(CC(Cc2ccc3cc(Br)c(C(F)(F)P(=O)(O)O)cc3c2)(C(=O)c2ccccc2)n2nnc3ccccc32)cc1Br` (stereo not drawn) [({7-[2-({4-[(aminosulfinyl)difluoromethyl]-3-bromophenyl}methyl)-2-(1H-1,2,3-benzotriazol-1-yl)-3-oxo-3-phenylpropyl]-3-bromonaphthalen-2-yl}difluoromethyl)phosphonic acid (10d)], the 50% inhibitory concentration (IC50) in test [1] stood at 19 nM; in test [2] it was 192 nM.

Regarding `N[S+]([O-])C(F)(F)c1cc2cc(CC(Cc3ccc4cc(Br)c(C(F)(F)P(=O)(O)O)cc4c3)(C(=O)c3ccccc3)n3nnc4ccccc43)ccc2cc1Br` (stereo not drawn) [({7-[2-({7-[(aminosulfinyl)difluoromethyl]-6-bromonaphthalen-2-yl}methyl)-2-(1H-1,2,3-benzotriazol-1-yl)-3-oxo-3-phenylpropyl]-3-bromonaphthalen-2-yl}difluoromethyl)phosphonic acid (10j)], the IC50 in test [1] was 4 nM; in test [2], 480 nM.

On to `N[S+]([O-])C(F)(F)c1cc2nc(CC(Cc3ccc4cc(Br)c(C(F)(F)P(=O)(O)O)cc4c3)(C(=O)c3ccccc3)n3nnc4ccccc43)ccc2cc1Br` (stereo not drawn) [({7-[2-({7-[(aminosulfinyl)difluoromethyl]-6-bromoquinolin-2-yl}methyl)-2-(1H-1,2,3-benzotriazol-1-yl)-3-oxo-3-phenylpropyl]-3-bromonaphthalen-2-yl}difluoromethyl)phosphonic acid (10k)], for which the concentration for half-maximal inhibition (IC50) in test [1] stood at 6 nM; in test [2], 185 nM.
